Results: publication PMC8466962, “Isolation and Biological Characterization of Homoisoflavanoids and the Alkylamide N-p-Coumaroyltyramine from Crinum biflorum Rottb., an Amaryllidaceae Species Collected in Senegal” (Biomolecules, 2021)

Key:
Dengue virus (DENV) = system: Dengue virus (DENV); set-up: method as in PMID 34152811; conditions: read-out: DENV replication EC50; cited from earlier work
Zika virus (ZIKV) = system: Zika virus (ZIKV); set-up: method as in PMID 34152811; conditions: read-out: ZIKV replication EC50; cited from earlier work
[1] = system: human immunodeficiency virus type 1 (HIV-1); set-up: method as in PMID 34152811; conditions: cited from earlier work
HaCaT cells = assay: DCFDA assay (ROS); assay type: cell-based, human; conditions: for Production of reactive oxygen species (ROS): 10 µM, HaCaT cells
Description: N-p-coumaroyltyramine antioxidant activity was measured using 2′−7′dichlorofluorescein diacetate (DCFDA), a non-fluorescent compound permeable to the cell membrane, which can be oxidized by reactive oxygen species (ROS) giving a fluorescent compound. […] The medium was removed after 4 h and 1 mM (3%) H2O2 was added for 45 min, 1.5 and 2.0 h. Cells were washed with PBS and a fresh medium with DCFDA ([…]) was added for 45 min, then DCFDA was removed by washing in PBS and the cells were harvested. The measurement of ROS was obtained using the Sinergy H4 microplate reader (Gen5 2.07, Thermofisher, Waltham MA, USA). The fluorescence emitted from the cells treated with DCFDA was compared to the untreated cells. Trolox was used as a positive control. Values shown in the plot are mean ± SD of sixfold determinations. The mean and the standard deviation were calculated on biological triplicates using GraphPad Prism 8.0.2 software (GraphPad, San Diego, CA, USA).

[2] = system: VSV-G pseudotyped HIV-1GFP; assay: VSV-G pseudotyped HIV-1GFP infectivity assay in THP-1 cells; assay type: cell-based; conditions: for Fold decrease in infection: 50 μM, THP-1, 72 h; for Infection (mean % HIV-1GFP+ cells): 100 μM, THP-1, MOI 1, 72 h, DMSO 8.16%; for Infection levels at lower concentrations: below 50 μM (12.5, 25 μM)
α-glucosidase = α-glucosidase inhibitor assay (colorimetric kit); assay type: biochemical
Description: (§1) α-glucosidase and α-amylase inhibitor screening kits (colorimetric) were purchased from Biovision (Milpitas, CA, USA). In total, 10 mM of stock solution of all the tested compounds were dissolved in DMSO and serially diluted in the assay buffer of each kit. Experiments were performed according to the manufacturer’s protocol. Briefly, for the α-glucosidase assay, 10 µL of serially diluted compounds at the corresponding concentration ([…]–1 mM) were added into designated wells of clear 96 well-plates. Subsequently, 10 µL of the α-glycosidase enzyme was added to each well and volume was adjusted to 80 µL and plates were incubated for 15-min at room temperature in dark condition. Then, 20 µL of α-glycosidase substrate mixture was added in all wells and kinetic of reaction was measured at OD: 410 nm for 60 min at 2 min intervals by using a multiplate reader, Biotek instrument, Inc., Canada. Enzyme control (no inhibitor), background control (no enzyme), solvent control (DMSO) and inhibitor control (acarbose) were included in the plates. For the α-amylase assay, 50 µL of serially diluted compounds (3.25 µM to 500 µM) were added into a clear 96-well plate with 50 µL of assay buffer and 50 µL of α-amylase enzymes. The plate was incubated at room temperature in the dark for 10 min. Then 50 µL of the α-amylase substrate was added in all wells. The kinetic of reaction was measured at OD:410 nm for 26 min at intervals of 2 min by using a multiplate reader. Control α-amylase inhibitor was provided by the manufacturer, enzyme control, background control and solvent control were all included. Enzyme inhibition was calculated according to Zhang et al. (2014). In summary, ODs were plotted according to the time for each sample. Areas under the curve (AUC) were calculated, and enzyme inhibition was measured as 100−(AUCcompound/AUCenzyme) × 100 for each dilution of each compound.

α-amylase = α-amylase inhibitor assay (colorimetric kit); assay type: biochemical; conditions: concentrations 3.9-250 μM, 26 min kinetics
Description: as §1, with “For the α-amylase assay, 50 µL of serially diluted compounds (3.25 µM to 500 µM) were added into a clear 96-well plate with 50 µL of assay buffer and 50 µL of α-amylase enzymes. The plate was incubated at room temperature in the dark for 10 min. Then 50 µL of the α-amylase substrate was added in all wells.” left out, “Control α-amylase inhibitor was provided by the manufacturer, enzyme control, background control and solvent control were all included.” left out, “In summary, ODs were plotted according to the time for each sample.” left out

[3] = system: acetylcholinesterase (AChE); assay: Anti-acetylcholinesterase assay (Ellman); assay type: biochemical
Description: In vitro acetylcholinesterase (AChE) activity was assessed exactly as in Ka et al. (2020) following Ellman’s colorimetric protocol with the Acetylcholinesterase Assay Kit (Abcam Inc., Boston, MA, USA). Briefly, 50 µL serial dilutions (3.9–500 µM) of compounds 1–5 were prepared in Tris-HCl pH = 7.9 buffer into designated wells of a clear 96 well-plate. A total of 5 µL of DTNB was added in each well, then 50 µL of diluted acetycholinesterase was added. The plate was incubated for 10 min in the dark. Matched concentrations of DMSO were used as a negative control. Kinetic of reaction was measured in a multiple plate reader at 410 nm in kinetic mode for 40 min at room temperature. The percentage of anti-AChE inhibition was calculated according to the following formula: 100 − [((E − S)/E) × 100], where E is the activity of the enzyme with matched concentrations of DMSO and S is the activity of the enzyme with the test sample.

[4] = system: HaCaT immortalized keratinocytes; conditions: for Effect on HaCaT cell viability: incubation extended for 48 h, 0.5 to 10 μM
Description: (§2) HeLa cervical cancer cells (CCL-2) and A431 (ATCC-CRL1555) human epidermoid carcinoma cells were from American Type Culture Co [...

[5] = system: A431 human epidermoid carcinoma cells; conditions: 0.5 to 10 μM, 24 and 48 h
Description: as §2

[6] = system: HeLa cervical cancer cells; conditions: 0.5 to 10 μM, 24 and 48 h
Description: as §2

THP-1 cells = assay: Propidium iodide cytotoxicity in THP-1 cells; conditions: 72 h; for PI+ cells: 100 μM; for Dead cells: all concentrations tested (12.5-100 μM)
in vitro [7] = conditions: human, HaCaT immortalized keratinocytes
Description: as §2

in vitro [8] = conditions: human, A431 epidermoid carcinoma cells
Description: as §2

in vitro [9] = conditions: human; for IC50 at 24 h: HeLa cervical cancer cells
Description: as §2

[10] = system: HaCaT, HeLa and A431 cells; assay: γ-H2AX foci immunofluorescence (DNA damage); assay type: cell-based, human; conditions: 10 μM, 24 h, all tested cell lines
Description: Cells were seeded in 35 mm dishes on micro cover glasses (BDH) and treated with the metabolite at a concentration of 10 μM. […] Cells were permeabilized with ice-cold 0.5% Triton X-100 for 5 min and then washed with PBS. Cells were then incubated with phospho-histone H2A.X (Ser139) antibody (from Cell Signaling Technologies 9542, Boston, MA, USA) for 1 h, followed by DAPI (Sigma-Aldrich) for 3 min and washed with PBS/0.05% Tween. Coverslip was mounted with Ibidi mounting medium (Ibidi GmbH, Martinsried, Germany). Images were taken with a Zeiss confocal laser-scanning microscope Axio Observer (Zeiss, Ostfilden, Germany) (scale bar, 20 μm). A 40× objective was used and image analysis was performed using Fiji ImageJ open source software project (https://imagej.net/imaging/). All the images were taken with the same setting.

[11] = system: ovarian carcinoma, melanoma and non-small lung cancer cells; set-up: method as in PMID 23659371; conditions: cited from earlier work
[12] = increasing inhibition from 15.6 μM to 250 μM

Structure (SMILES) | Fold decrease in infection [2] [fold] | Infection (mean % HIV-1GFP+ cells) [2] [%] | PI+ cells (THP-1 cells) [%] | α-glucosidase inhibition (α-glucosidase; 1 mM) [%] | AChE inhibition [3, 12] | IC50 at 24 h (in vitro [7]) [µM] | IC50 at 24 h (in vitro [8]) [µM] | IC50 at 24 h (in vitro [9]) [µM] | Nuclear γH2AX foci [10] | Production of reactive oxygen species (ROS) (HaCaT cells) | Infection levels at lower concentrations [2] | Effect on HaCaT cell viability [4] | Dead cells (THP-1 cells) | also measured
COc1cc2c(cc1O)CN(C)C[C@H]2c1ccc(O)cc1 [cherylline] |  |  |  |  |  |  |  |  |  |  |  |  |  | EC50 (Dengue virus (DENV)): 8.8 µM; EC50 (Zika virus (ZIKV)): 20.3 µM; Effect on HIV-1 infection [1]: ineffective
O=C(/C=C/c1ccc(O)cc1)NCCc1ccc(O)cc1 [Compound 5, (E)-N-(4-hydroxyphenethyl)-3-(4-hydroxyphenyl)acrylamide] | 1.6 | 2.12 | 5.97 |  |  |  |  |  |  |  |  |  |  | Antioxidant activity: ROS induced by H2O2 (HaCaT cells; 10 and 100 µM, 4 h pre-treatment, H2O2 1 mM, Trolox positive control): antioxidant activity comparable to Trolox; α-glucosidase inhibition (α-glucosidase; all concentrations tested, 0.01-1000 μM): nearly completely inhibited; IC50 (α-amylase): 40 µM; AChE inhibition ([3]; high concentrations): weakly inhibited; Effect on HaCaT cell viability at the lower concentrations ([4]; 0.5 and 1 μM): significantly increase HaCaT cell viability; Cytotoxic activity IC50, HaCaT ([4]; MTT, 24 h of incubation): Not detected; Toxicity on A431 cancer cells [5]: toxic; Toxicity on HeLa cancer cells [6]: toxic
COc1cc2c(c(OC)c1OC)C(=O)C(O)(Cc1ccc(O)cc1)CO2 (centres unmarked) [Compound 2, 3-hydroxy-5,6,7-trimethoxy-3-(4-hydroxybenzyl)chroman-4-one] |  | 4.03 | 4.15 | 50 | up to 20% | > 10 | > 10 | 4 |  |  |  |  |  | 
COc1ccc(CC2(O)COc3cc(OC)c(OC)c(OC)c3C2=O)cc1 (centres unmarked) [Compound 3, 3-hydroxy-5,6,7-trimethoxy-3-(4-methoxybenzyl)chroman-4-one] | 2.0 | 2.51 |  | 50 |  | > 10 | 4 | 4.5 | remarkable increase | did not increase | decreased infection levels | significant reduction | 30–40% | AChE enzyme activity blocked ([3]; concentrations increased from 3.9 to 500 μM): 15–30%; Antiproliferative activity [11]: submicromolar concentration
COc1ccc(CC2COc3cc(OC)c(OC)c(OC)c3C2=O)cc1 (centres unmarked) [Compound 4, 5,6,7-trimethoxy-3-(4-methoxybenzyl)chroman-4-one] | 2.4 | 2.76 |  |  | up to 20% | > 10 | 6.5 | 5.5 | remarkable increase | did not increase | decreased infection levels | significant reduction | 30–40% | 
COc1cc2c(c(OC)c1OC)C(=O)C(Cc1ccc(O)cc1)CO2 (centres unmarked) [Compound 1, 5,6,7-trimethoxy-3-(4-hydroxybenzyl)chroman-4-one] |  | 3.78 | 8.74 | 50 | up to 20% | > 10 | 6 | 1 |  |  |  |  |  | viability at 48 h, 5 µM (in vitro [9]; HeLa cervical cancer cells (CCL-2)): < 20%
